# Laboratory results: US9988400B2 (Genentech, Inc., priority 2013, dated 2018)
# Target: T1, HEK cells stably transfected with tetracycline inducible hNR1 and hNR2A (Homo sapiens, UniProt Q05586+Q12879)
# T1 construct: expressed in transfected cells; host or cells: HEK cells, stably transfected, tetracycline/doxycycline inducible
# Test: Assay 1: Cell-Based Assay, cytosolic calcium response to positive allosteric modulators (with 30 μM glycine and 300 nM L-glutamate, EC30)
# Conditions: Table 3; cytosolic calcium response, with 30 μM glycine and 300 nM L-glutamate (EC30); — = no plateau was reached
# Procedure, shortened: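 Cells induced 24 h with 7.5 μg mL^−1 doxycycline plus 500 μM (+)-ketamine, loaded 60 min at 37 °C with calcium dye in Mg-free HBSS (1.8 mM Ca, probenecid, 10 μM (+)-ketamine, pH 7.15). Peak RFU over 5 min after compound addition, scaled to 100 μM L-glutamate (100%) and 0 μM (0%); four-parameter Hill fit for EC50, max % if no plateau.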
# T1 sequence (Q12879 23-1464, other chains not shown): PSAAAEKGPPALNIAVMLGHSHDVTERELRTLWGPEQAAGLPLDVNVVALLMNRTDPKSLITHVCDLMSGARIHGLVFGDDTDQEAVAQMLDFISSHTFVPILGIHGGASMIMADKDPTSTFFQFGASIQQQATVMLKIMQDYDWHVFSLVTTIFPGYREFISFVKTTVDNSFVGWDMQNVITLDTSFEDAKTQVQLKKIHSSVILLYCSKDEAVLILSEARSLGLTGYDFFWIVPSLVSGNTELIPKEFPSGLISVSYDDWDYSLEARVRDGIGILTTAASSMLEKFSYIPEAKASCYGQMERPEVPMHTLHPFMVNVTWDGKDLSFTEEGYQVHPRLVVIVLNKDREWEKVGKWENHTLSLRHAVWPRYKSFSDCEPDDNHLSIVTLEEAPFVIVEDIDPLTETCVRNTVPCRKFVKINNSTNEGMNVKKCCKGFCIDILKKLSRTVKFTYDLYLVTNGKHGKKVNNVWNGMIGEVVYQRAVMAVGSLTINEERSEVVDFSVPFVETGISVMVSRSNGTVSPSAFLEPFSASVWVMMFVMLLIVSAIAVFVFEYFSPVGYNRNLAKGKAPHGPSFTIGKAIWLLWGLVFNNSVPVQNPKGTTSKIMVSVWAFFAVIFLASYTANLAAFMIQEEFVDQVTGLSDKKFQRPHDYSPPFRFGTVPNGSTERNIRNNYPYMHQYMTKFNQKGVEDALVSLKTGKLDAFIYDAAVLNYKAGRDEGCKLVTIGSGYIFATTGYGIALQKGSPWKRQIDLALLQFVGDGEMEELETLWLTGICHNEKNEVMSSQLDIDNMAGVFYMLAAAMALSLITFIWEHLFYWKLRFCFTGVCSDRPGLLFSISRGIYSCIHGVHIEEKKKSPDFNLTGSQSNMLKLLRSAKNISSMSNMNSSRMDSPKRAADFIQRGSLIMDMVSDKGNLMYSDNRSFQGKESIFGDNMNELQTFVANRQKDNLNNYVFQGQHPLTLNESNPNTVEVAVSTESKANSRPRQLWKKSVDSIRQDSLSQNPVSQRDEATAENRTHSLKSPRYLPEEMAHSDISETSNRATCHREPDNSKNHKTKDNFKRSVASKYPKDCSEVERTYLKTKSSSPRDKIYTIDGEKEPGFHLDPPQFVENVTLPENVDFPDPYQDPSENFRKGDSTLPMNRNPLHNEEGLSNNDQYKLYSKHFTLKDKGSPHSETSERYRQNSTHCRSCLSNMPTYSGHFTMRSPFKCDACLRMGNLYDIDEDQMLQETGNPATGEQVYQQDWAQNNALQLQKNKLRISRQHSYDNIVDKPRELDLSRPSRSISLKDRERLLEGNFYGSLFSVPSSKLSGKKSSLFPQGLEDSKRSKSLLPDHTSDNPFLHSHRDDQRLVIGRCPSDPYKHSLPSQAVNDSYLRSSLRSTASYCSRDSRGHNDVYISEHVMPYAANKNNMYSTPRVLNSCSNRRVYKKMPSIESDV
row,EC50 [µM],SMILES
1,6.14,"COc1sc2nc(Cn3nc(C(F)(F)F)cc3Cl)cc(=O)n2c1-c1cccnc1 [compound 233, 7-[[5-chloro-3-(trifluoromethyl)pyrazol-1-yl]methyl]-2-methoxy-3-(3-pyridyl)thiazolo[3,2-a]pyrimidin-5-one]"
2,0.0342,"Cc1sc2nc(Cn3nc(C(F)(F)F)cc3Br)cc(=O)n2c1C1CC1C#N (stereo not shown) [compound 234, 2-[7-[[5-bromo-3-(trifluoromethyl)pyrazol-1-yl]methyl]-2-methyl-5-oxo-thiazolo[3,2-a]pyrimidin-3-yl]cyclopropanecarbonitrile]"
3,21.2,"O=c1cc(Cn2nc(C(F)(F)F)cc2Cl)nc2scc(Cl)n12 [compound 235, 3-chloro-7-[[5-chloro-3-(trifluoromethyl)pyrazol-1-yl]methyl]thiazolo[3,2-a]pyrimidin-5-one]"
4,44.5,"O=c1cc(Cn2nc(Cl)cc2C(F)(F)F)nc2scc(Cl)n12 [compound 236, 3-chloro-7-[[3-chloro-5-(trifluoromethyl)pyrazol-1-yl]methyl]thiazolo[3,2-a]pyrimidin-5-one]"
5,0.889,"CCNC(=O)c1c(C(C)=O)sc2nc(Cn3nc(C(F)(F)F)cc3Cl)cc(=O)n12 [compound 237, 2-acetyl-7-[[5-chloro-3-(trifluoromethyl)pyrazol-1-yl]methyl]-N-ethyl-5-oxo-thiazolo[3,2-a]pyrimidine-3-carboxamide]"
6,2.32,"CCNC(=O)c1c(C(C)=O)sc2nc(Cn3nc(Cl)cc3C(F)(F)F)cc(=O)n12 [compound 238, 2-acetyl-7-[[3-chloro-5-(trifluoromethyl)pyrazol-1-yl]methyl]-N-ethyl-5-oxo-thiazolo[3,2-a]pyrimidine-3-carboxamide]"
7,14.2,"O=c1cc(Cn2nc(C(F)(F)F)cc2Cl)nc2scc(C(F)(F)F)n12 [compound 239, 7-[[5-chloro-3-(trifluoromethyl)pyrazol-1-yl]methyl]-3-(trifluoromethyl)thiazolo[3,2-a]pyrimidin-5-one]"
8,37.1,"Cc1sc2nc(Cc3cccc(C(F)(F)F)c3F)cc(=O)n2c1-c1ncn[nH]1 [compound 240, 7-[[2-Fluoro-3-(trifluoromethyl)phenyl]methyl]-2-methyl-3-(1H-1,2,4-triazol-5-yl)thiazolo[3,2-a]pyrimidin-5-one]"
9,0.313,"N#CC1CC1c1csc2nc(Cn3nc(C(F)(F)F)cc3Cl)cc(=O)n12 (stereo not shown) [compound 241, 2-[7-[[5-chloro-3-(trifluoromethyl)pyrazol-1-yl]methyl]-5-oxo-thiazolo[3,2-a]pyrimidin-3-yl]cyclopropanecarbonitrile]"
10,11.4,"CC(=O)c1csc2nc(Cn3nc(C(F)(F)F)cc3Cl)cc(=O)n12 [compound 242, 3-acetyl-7-[[5-chloro-3-(trifluoromethyl)pyrazol-1-yl]methyl]thiazolo[3,2-a]pyrimidin-5-one]"
11,0.864,"O=c1cc(Cn2nc(C(F)(F)F)cc2Cl)nc2sc(C(F)(F)F)c(OCC(F)(F)F)n12 [compound 243, 7-[[5-chloro-3-(trifluoromethyl)pyrazol-1-yl]methyl]-3-(2,2,2-trifluoroethoxy)-2-(trifluoromethyl)thiazolo[3,2-a]pyrimidin-5-one]"
12,0.392,"COc1sc2nc(Cn3nc(C(F)(F)F)cc3Cl)cc(=O)n2c1C(C)=O [compound 244, 3-Acetyl-7-[[5-chloro-3-(trifluoromethyl)pyrazol-1-yl]methyl]-2-methoxy-thiazolo[3,2-a]pyrimidin-5-one]"
13,0.409,"COc1sc2nc(Cn3nc(Cl)cc3C(F)(F)F)cc(=O)n2c1C(C)=O [compound 245, 3-acetyl-7-[[3-chloro-5-(trifluoromethyl)pyrazol-1-yl]methyl]-2-methoxy-thiazolo[3,2-a]pyrimidin-5-one]"
14,0.0999,"Cc1sc2nc(Cn3nc([N+](=O)[O-])cc3Cl)cc(=O)n2c1Br [compound 246, 3-bromo-7-[(5-chloro-3-nitro-pyrazol-1-yl)methyl]-2-methyl-thiazolo[3,2-a]pyrimidin-5-one]"
15,7.7,"O=c1cc(Cn2nc(C(F)(F)F)cc2Cl)nc2sc(C(F)(F)F)c(-c3ccn[nH]3)n12 [compound 247, 7-[[5-chloro-3-(trifluoromethyl)pyrazol-1-yl]methyl]-3-(1H-pyrazol-5-yl)-2-(trifluoromethyl)thiazolo[3,2-a]pyrimidin-5-one]"
16,1.45,"O=c1cc(Cn2nc(C(F)(F)F)cc2Cl)nc2sc(C(F)(F)F)c(-c3cscn3)n12 [compound 248, 7-[[5-chloro-3-(trifluoromethyl)pyrazol-1-yl]methyl]-3-thiazol-4-yl-2-(trifluoromethyl)thiazolo[3,2-a]pyrimidin-5-one]"
17,6.33,"O=c1cc(Cn2nc(C(F)(F)F)cc2Cl)nc2sc(C(F)(F)F)c(-c3cncc(F)c3)n12 [compound 249, 7-[[5-chloro-3-(trifluoromethyl)pyrazol-1-yl]methyl]-3-(5-fluoro-3-pyridyl)-2-(trifluoromethyl)thiazolo[3,2-a]pyrimidin-5-one]"

row,EC50 [µM],SMILES
1,13.8,"CCC(=O)c1c(C(F)(F)F)sc2nc(Cn3nc(C(F)(F)F)cc3Cl)cc(=O)n12 [compound 250, 7-[[5-Chloro-3-(trifluoromethyl)pyrazol-1-yl]methyl]-3-propanoyl-2-(trifluoromethyl)thiazolo[3,2-a]pyrimidin-5-one]"
2,0.42,Cc1sc2nc(Cn3nc(Cl)cc3Cl)cc(=O)n2c1C1CC1C#N (stereo not shown) [compound 251]
3,5.76,"Cc1sc2nc(Cn3nc(Cl)cc3C(F)(F)F)cc(=O)n2c1C(C)C#N (stereo not shown) [compound 252, 2-[7-[[3-chloro-5-(trifluoromethyl)pyrazol-1-yl]methyl]-2-methyl-5-oxo-thiazolo[3,2-a]pyrimidin-3-yl]propanenitrile]"
4,9.95,"CC1CC1c1c(C(F)(F)F)sc2nc(Cc3cccc(C#N)c3F)cc(=O)n12 (stereo not shown) [compound 253, 2-fluoro-3-[[3-[2-methylcyclopropyl]-5-oxo-2-(trifluoromethyl)thiazolo[3,2-a]pyrimidin-7-yl]methyl]benzonitrile]"
5,1.37,"O=c1cc(Cn2nc(C(F)(F)F)cc2Cl)nc2sc(C(F)(F)F)c(N3CC(F)C3)n12 [compound 254, 7-[[5-chloro-3-(trifluoromethyl)pyrazol-1-yl]methyl]-3-(3-fluoroazetidin-1-yl)-2-(trifluoromethyl)thiazolo[3,2-a]pyrimidin-5-one]"
6,7.86,"O=c1cc(Cn2nc(C(F)(F)F)cc2Cl)nc2sc(C(F)(F)F)c(-c3cncc(Cl)c3)n12 [compound 255, 3-(5-chloro-3-pyridyl)-7-[[5-chloro-3-(trifluoromethyl)pyrazol-1-yl]methyl]-2-(trifluoromethyl)thiazolo[3,2-a]pyrimidin-5-one]"
7,0.611,"CCNC(=O)c1c(C(F)(F)F)sc2nc(Cn3nc(Cl)cc3Cl)cc(=O)n12 [compound 256, 7-[(3,5-dichloropyrazol-1-yl)methyl]-N-ethyl-5-oxo-2-(trifluoromethyl)thiazolo[3,2-a]pyrimidine-3-carboxamide]"
8,20.5,"CC(=O)c1c(C(F)(F)F)sc2nc(Cc3cccc(C#N)c3F)cc(=O)n12 [compound 257, 3-[[3-acetyl-5-oxo-2-(trifluoromethyl)thiazolo[3,2-a]pyrimidin-7-yl]methyl]-2-fluoro-benzonitrile]"
9,0.227,"CCNC(=O)c1c(C(F)F)sc2nc(Cn3nc(C(F)(F)F)cc3Cl)cc(=O)n12 [compound 258, 7-[[5-Chloro-3-(trifluoromethyl)pyrazol-1-yl]methyl]-2-(difluoromethyl)-N-ethyl-5-oxo-thiazolo[3,2-a]pyrimidine-3-carboxamide]"
10,0.749,"CCNC(=O)c1c(C(F)F)sc2nc(Cn3nc(Cl)cc3C(F)(F)F)cc(=O)n12 [compound 259, 7-[[3-chloro-5-(trifluoromethyl)pyrazol-1-yl]methyl]-2-(difluoromethyl)-N-ethyl-5-oxo-thiazolo[3,2-a]pyrimidine-3-carboxamide]"
11,2.45,"CCN(Cc1cc(=O)n2c(/C=C\C#N)c(C)sc2n1)c1ccc(F)cc1 [compound 260, (Z)-3-[7-[(N-ethyl-4-fluoro-anilino)methyl]-2-methyl-5-oxo-thiazolo[3,2-a]pyrimidin-3-yl]prop-2-enenitrile]"
12,1.54,"CCN(Cc1cc(=O)n2c(/C=C/C(N)=O)c(C)sc2n1)c1ccc(F)cc1 [compound 261, (E)-3-[7-[(N-ethyl-4-fluoro-anilino)methyl]-2-methyl-5-oxo-thiazolo[3,2-a]pyrimidin-3-yl]prop-2-enamide]"
13,1.11,"Cc1sc2nc(Cn3nc(C(F)(F)F)cc3Cl)cc(=O)n2c1/C=C/C#N [compound 262, (E)-3-[7-[[5-chloro-3-(trifluoromethyl)pyrazol-1-yl]methyl]-2-methyl-5-oxo-thiazolo[3,2-a]pyrimidin-3-yl]prop-2-enenitrile]"
14,0.501,"Cc1sc2nc(Cn3nc(C(F)(F)F)cc3Cl)cc(=O)n2c1/C=C\C#N [compound 263, (Z)-3-[7-[[5-chloro-3-(trifluoromethyl)pyrazol-1-yl]methyl]-2-methyl-5-oxo-thiazolo[3,2-a]pyrimidin-3-yl]prop-2-enenitrile]"
15,5.09,"Cc1sc2nc(Cn3nc(C(F)(F)F)cc3Cl)cc(=O)n2c1/C=C/C(N)=O [compound 264, (E)-3-[7-[[5-chloro-3-(trifluoromethyl)pyrazol-1-yl]methyl]-2-methyl-5-oxo-thiazolo[3,2-a]pyrimidin-3-yl]prop-2-enamide]"
16,4.84,"CCNC(=O)c1c(C)sc2nc(Cn3nc(C(F)(F)F)cc3CC(C)C)cc(=O)n12 [compound 265, N-ethyl-7-[[5-isobutyl-3-(trifluoromethyl)pyrazol-1-yl]methyl]-2-methyl-5-oxo-thiazolo[3,2-a]pyrimidine-3-carboxamide]"
17,0.157,N#CC1CC1c1c(Cl)sc2nc(Cn3nc(C(F)(F)F)cc3Cl)cc(=O)n12 (stereo not shown) [compound 267]
